# Test results: US20040204590A1, “Ep4 receptor agonist, compositions and methods thereof” (priority 2001, published 2004)
# Key:
# [1] = test system: ROS 17/2.8 rat osteosarcoma cells; test: Effect on intracellular cAMP in ROS 17/2.8 cells; assay type: cell-based
# Description: (§1) RCT-1 and RCT-3 are clonal cell lines immortalized by SV-40 large T antigen from cells released from fetal rat calvair by a cmbination collagenase/hyaluronidase digestion. RCT-1 cells, derived from cells released during the first 10 minutes of digestion (fraction I), are cultured in RPMI 1640 medium (BRL) with 10% fetal bovine serum and 0.4 mg/ml G418 (BRL). These cells differentiate and express osteoblastic features upon retinoic acid treatment. RCT-3 cells, immortalized from osteoblast-enriched fraction […] cells, are cultured in F-12 medium (BRL) with 5% Fetal bovine serum and 0.4 mg/ml G418. TRAB-11 cells are also immortalized by SV40 large T antigen from adult rat tibia and are cultured in RPMI 1640 medium with 10% FBS and 0.4 mg/ml G418. ROS 17/2.8 rat osteosarcoma cells are cultured in F-12 containing 5% FBS. Osteoblast-enriched (fraction III) primary fetal rat calvaria cells are obtained by collagenase/hyaluronidase digestion of calvariae of 19 day-old rat fetuses. See Rodan et al., Growth stimulation of rat calvaria osteoblastic cells by acidic FGF, Endocrinology, 121, 1919-1923 (1987), which is incorporated by reference herein in its entirety. Cells are released during 30-50 minutes digestion (fraction III) and are cultured in F-12 medium containing 5% FBS. […]
# RCT-3 cells [2] = test: Effect on intracellular cAMP in RCT-3 cells; assay type: cell-based, rat
# Description: as §1
# TRAB-11 cells = test: Effect on intracellular cAMP in TRAB-11 cells; assay type: cell-based, rat
# Description: as §1
# RP-1 periosteal cells = test: EP4 and EP2 mRNA expression in RP-1 periosteal cells (Northern blot); assay type: cell-based, rat; conditions: RP-1 cells
# Description: RP-1 periosteal cells are spontaneously immortalized from primary cultures of periosteal cells from tibae of 4-week old Sprague-Dawley rats and are cultured in DMEM (BRL, Gaithersburg, Md.) with 10% fetal bovine serum (JRH Biosciences, Lenexa, Kans.).
# Total RNA is extracted from the tibial metaphysis or diaphysis and calvaria using a guanidinium isothiocyanate-phenol-chloroform method after pulverizing frozen bone samples by a tissue homogenizer. See P. Chomczynski et al., Single-step method of RNA isolation by acid guanidium thiocyanate-phenol-chloroform extraction., Analyt Biochem, 162, 156-159 (1987), which is incorporated by reference herein in its entirety. RNA samples ([…]) are separated on 0.9% agarose/formaldehyde gels and transferred onto nylon membranes (Boehringer Mannheim, Germany). Membranes are prehybridized in Hybrisol I (Oncor, Gaithersburg, Md.) and 0.5 mg/ml sonicated salmon sperm DNA (Boehringer) at 42° C. for 3 hours and are hybridized at 420C with rat EP2 and mouse EP4 cDNA probes labeled with [^32P]-dCTP (Amersham, Buckinghamshire, UK) by random priming using the rediprime kit (Amersham). After hybridization, membranes are washed 4 times in 2×SSC+0.1% SDS at room temperature for a total of 1 hour and once with 0.2×SSC+0.1% SDS at 550C for 1 hour and then exposed to Kodak XAR 2 film at −70° C. using intensifying screens. […]
# RCT-3 cells [3] = test: EP4 mRNA expression in RCT-3 cells (Northern blot); assay type: cell-based, rat
# Description: as §1
# EP4 mRNA in bone tissue = test: EP4 and EP2 mRNA levels in bone tissue of injected rats (Northern blot); assay type: in vivo, rat; conditions: injected 3-6 mg/Kg
# Description: (§2) For mRNA localization experiments, 5-week old Sprague-Dawley rats (Charles River) are euthanized by CO2, their tibiae and calvariae are excised, cleaned of soft tissues and frozen immediately in liquid nitrogen. For EP4 regulation experiments, 6-week old rats are given a single injection of either vehicle (7% ethanol in sterile water) or an anabolic dose of PGE2 (Cayman Chemical, Ann Arbor, Mich.), 3-6 mg/kg in the same vehicle) intraperitoneally. Animals are euthanized at several time points post-injection and their tibiae and calvariae, as well as samples from lung and kidney tissues are frozen in liquid nitrogen.
# Total RNA is extracted from the tibial metaphysis or diaphysis and calvaria using a guanidinium isothiocyanate-phenol-chloroform method after pulverizing frozen bone samples by a tissue homogenizer. See P. Chomczynski et al., Single-step method of RNA isolation by acid guanidium thiocyanate-phenol-chloroform extraction., Analyt Biochem, 162, 156-159 (1987), which is incorporated by reference herein in its entirety. RNA samples ([…]) are separated on 0.9% agarose/formaldehyde gels and transferred onto nylon membranes (Boehringer Mannheim, Germany). […]
# [4] = test system: EP4 expression in bone marrow cells; test: Localization of EP4 mRNA in bone tissue by in situ hybridization; assay type: in vivo, rat; conditions: rats, single anabolic dose
# Description: as §2
# Frozen tibiae are sectioned coronally at […] thickness and sections are mounted on charged slides (Probe On Plus, Fisher Scientific, Springfield, N.J.) and are kept at −70° C. until hybridization. cRNA probes are labeled with ^35S-UPgS (ICN, Costa Mesa, Calif.) using a Riboprobe II kit (Promega Madison, Wis.). Hybridization is performed overnight at 50° C. See M. Weinreb et al., Different pattern of alkaline phosphatase, osteopontin and osteocalcin expression in developing rat bone visualized by in-situ hybridization, J. Bone Miner Res., 5, 831-842 (1990) and D. Shinar et al., Expression of alphav and beta3 integrin subunits in rat osteoclasts in situ, J. Bone Miner. Res., 8, 403-414 (1993), which are both incorporated by reference herein in their entirety. […]
smiles,measurement,setting,value
CCCCC[C@H](O)/C=C/[C@H]1[C@H](O)CC(=O)[C@@H]1C/C=C\CCCC(=O)O [PGE2],effect on intracellular cAMP,[1],no effect
same,effect on intracellular cAMP,RCT-3 cells [2],markedly induced
same,effect on intracellular cAMP,TRAB-11 cells,markedly induced
same,EP4 mRNA levels,RP-1 periosteal cells; 10^−6 M,rapidly increases
same,EP2 mRNA expression,RP-1 periosteal cells; before or after treatment,not expressed
same,EP4 mRNA levels,RCT-3 cells [3],no effect
same,EP4 mRNA levels in the tibial diaphysis,EP4 mRNA in bone tissue; five-week-old male rats,rapidly increased
same,EP2 mRNA in bone tissue,EP4 mRNA in bone tissue; rats,does not induce
same,expression of EP4 in bone marrow cells,[4],increased
